According to US5164296A, “Assay methods involving ouabain” (priority 1990, dated 1992):

What was measured:
[1] = tested on: rings of aorta from guinea pigs; assay: Vasoactive properties in rings of aorta from guinea pigs; set-up: species or system guinea pig
Procedure: The aortic rings were incubated at 37° C. in phosphate buffered saline. The rings were submaximally contracted for 3 to 7 min, every 35 min, with 0.2 or 1.0 μM histamine. […] The apparent half-time for washout of the augmented tension response in the presence of plant ouabain was also much greater than 60 min.

(Na^+ +K^+)ATPase = target: T1, (Na^+ +K^+)ATPase (Canis lupus familiaris, UniProt P50997); assay: Inhibition of (Na^+ +K^+)ATPase activity (coupled optical assay); type: biochemical, dog; settings: inhibition of (Na^+ +K^+)ATPase activity
T1 construct: (Na^+ +K^+)ATPase was purified from the outer medulla of dog kidney; from tissue; host or cells: dog kidney outer medulla, purified membrane enzyme
Procedure: More specifically, (Na^+ +K^+)ATPase was purified from the outer medulla of dog kidney using the angle rotor procedure (Jorgensen, P.L., Biochim. Biophys. Acta, 356:36-52 (1974)) and stored frozen at -60° C. at 1.0 mg/ml in 25 mM imidazole-HCl (pH 7.5) and 1.0 mM EDTA, in small aliquots. (Na^+ +K^+)ATPase activity was determined at 37° C. from rate measurements in 1.0 ml of coupled optical assay mixture comprising 20 mM KCl, 100 mM NaCl, 4.5 mM MgSO4, 5.0 mM EGTA, 3.0 mM ATP-Na2, 1.2 mM phosphoenol-pyruvate-tricyclohexylammonium, 0.3 mM NADH, 100 mM TES-Tris (ph 7.4), 5.0 units of lactate dehydrogenase, and 5.0 units of pyruvate kinase (Hamlyn, J.M. et al, Nature, 300:650-652 (1982)). (Na^+ +K^+)ATPase activity was 99% ouabain-inhibitable with activities of 10-18 μmol/min/mg of membrane protein. Maximally effective concentrations of digitalis-like activity had no effect on the enzymatic components of the coupled optical assay as determined by inspection of rates in response to addition of 20-50 μM ADP. The maximal capacity of the coupled optical assay was at least 500-2000 fold greater than the typical maximal hydrolytic rate of the (Na^+ +K^+)ATPase and was not rate limiting under any assay condition described herein.
The inhibition of (Na^+ +K^+)ATPase was carried out as described above.

[2] = tested on: left atria from guinea pigs; assay: Inotropic properties in left atria from guinea pigs; set-up: species or system guinea pig
Procedure: Atria were incubated at 37° C. in phosphate buffered saline comprising 130 mM NaCl, 5.4 mM KCl, 1.8 mM MgCl2, 0.4 mM NaH2 PO4, 19 mM NaHCO3 and 5.4 g of glucose (pH 7.3-7.4), and gassed with 95% O2 /5% CO2. Tissues were stimulated at 1 Hz with twice threshold square pulses (0.8 to 1.0 V) of 0.7 to 1.2 msec duration. Resting tension was optimized for maximum isometric force generation. Control records were obtained once the phasic force was stabilized. […] For comparison, 200 nM plant ouabain evoked an inotropic response of 311±41% (N=4 experiments) which returned to normal with a half-time of approximately 5 min upon washout.

[3] = tested on: catechol-o-methyl transferase (COMT); assay: Substrate for catechol-o-methyl transferase (COMT); type: in vitro ADME; settings: EDLF described in the present invention
digoxin antibodies = settings: cited from earlier work
[4] = Protein binding in plasma; type: in vitro ADME; settings: EDLF described in the present invention

## CC1OC(OC2CC(O)C3(CO)C4C(O)CC5(C)C(C6=CC(=O)OC6)CCC5(O)C4CCC3(O)C2)C(O)C(O)C1O (centres unmarked) [human ouabain]
[1]; 170 nM human ouabain, 200 nM plant ouabain
  effect on baseline tension: no effect
[1]; Cavia porcellus, 0.5 h, read-out: histamine-evoked tension, % of control
  activity at 0.17 µM: 150 ± 14%
[1]; upon washout
  apparent half-time for washout of the augmented tension response: greater than 60 min
(Na^+ +K^+)ATPase
  Hill coefficient: -1.28
(Na^+ +K^+)ATPase; read-out: calculated apparent Kd value, 37° C.
  Kd: 13.9 nM
[2]; 85 nM
  time to plateau of increase in peak force: 34 min
[2]; Cavia porcellus, read-out: developed force above the control
  activation at 0.17 µM: 294 ± 28%
[2]; upon washout
  apparent half-time for washout of the inotropic response: approximately 5 min
[3]
  substrate for COMT: not a substrate for COMT
Digoxin antibodies
  cross-reaction with digoxin antibodies: does not cross-react
[4]
  protein binding in plasma: not highly protein bound in plasma
